Laboratory results taken from ChEMBL document CHEMBL2417389, “Synthesis and optimization of novel (3S,5R)-5-(2,2-dimethyl-5-oxo-4-phenylpiperazin-1-yl)piperidine-3-carboxamides as orally active renin inhibitors” (Bioorg Med Chem, 2013).
Positions count from the first letter of the chain named.

Assays:
[1] = target: T1, Renin (Macaca fascicularis) (UniProt Q6DLS0); test: Ratio of compound IC50 to Aliskiren hemifumarate IC50 for cynomolgus monkey plasma renin
T1 sequence (whole entry): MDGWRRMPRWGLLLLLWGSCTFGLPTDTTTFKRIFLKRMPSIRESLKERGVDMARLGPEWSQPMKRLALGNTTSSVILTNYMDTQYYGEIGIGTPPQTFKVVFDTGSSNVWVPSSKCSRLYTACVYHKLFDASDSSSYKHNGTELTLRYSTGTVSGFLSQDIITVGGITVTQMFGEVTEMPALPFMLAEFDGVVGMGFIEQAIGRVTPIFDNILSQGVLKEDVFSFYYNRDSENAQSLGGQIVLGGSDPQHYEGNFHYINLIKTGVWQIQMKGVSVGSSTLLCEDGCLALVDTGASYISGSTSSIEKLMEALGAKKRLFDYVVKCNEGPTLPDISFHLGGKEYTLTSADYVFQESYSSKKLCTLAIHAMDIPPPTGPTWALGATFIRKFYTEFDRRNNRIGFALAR

[2] = target: T2, Renin (Macaca fascicularis, UniProt Q6DLS0); test: Inhibition of cynomolgus monkey plasma renin assessed as angiotensin 1 level after 60 mins by competitive radioimmunoassay
T2 sequence (Q6DLS0 whole entry): T1 sequence (whole entry)

[3] = target: T3, Renin (Homo sapiens, UniProt P00797); test: Inhibition of trypsin-activated human recombinant renin using (Arg-Glu(EDANS)-Ile-His-Pro-Phe-His-Leu-Val-Ile-His-Thr-Lys(DABCYL)-Arg) as substrate incubated for 10 mins prior to substrate addition measured after 90 mins by fluorescence assay
T3 sequence (P00797 whole entry): T1 sequence (whole entry) with A68T, L214I, A235S

[4] = AUC (0 to 24 hrs) in cynomolgus monkey at 3 mg/kg, po; format: ADME, organism-based, Macaca fascicularis; parameters: time < 24 hr, dose 3 mg/kg, route oral; conditions: plasma

| Ratio IC50 [1] | IC50 [2] [nM] | IC50 [3] [nM] | AUC(0-t) at 24 h [4] [ng·h/mL] | Compound |
| --- | --- | --- | --- | --- |
| 0.8 | – | – | – | CC(C)C[C@@H](NC(=O)[C@@H]1CNC[C@H](N2CC(=O)N(c3ccccc3Cl)CC2(C)C)C1)C(O)C(C)C (some centres not stated) |
| 11 | 55 | 5.2 | – | CC[C@@H](NC(=O)[C@@H]1CNC[C@H](N2CC(=O)N(c3ccccc3Cl)CC2(C)C)C1)c1ccc(Cl)cc1 |
| 3.6 | 17 | 1.4 | – | CC(C)C[C@@H](NC(=O)[C@@H]1CNC[C@H](N2CC(=O)N(c3ccccc3Cl)CC2(C)C)C1)c1ccccn1 |
| 0.6 | 3.3 | 1.1 | – | CC(C)C[C@@H](NC(=O)[C@@H]1CNC[C@H](N2CC(=O)N(c3ccccc3Cl)CC2(C)C)C1)c1ccno1 |
| 0.9 | – | – | – | CC(C)C[C@@H](NC(=O)[C@@H]1CNC[C@H](N2CC(=O)N(c3ccccc3Cl)CC2(C)C)C1)c1cccnc1 |
| 5 | 25 | 2.3 | – | CC[C@@H](NC(=O)[C@@H]1CNC[C@H](N2CC(=O)N(c3ccccc3Cl)CC2(C)C)C1)c1cccc(Cl)c1 |
| 0.5 | – | – | 60 | CCOC[C@@H](CC(C)C)NC(=O)[C@@H]1CNC[C@H](N2CC(=O)N(c3ccccc3Cl)CC2(C)C)C1.O=C(O)/C=C/C(=O)O |
| 2.8 | 14 | 1.8 | – | CC[C@@H](NC(=O)[C@@H]1CNC[C@H](N2CC(=O)N(c3ccccc3Cl)CC2(C)C)C1)c1cccc(F)c1 |
| 3.7 | 19 | 2.4 | – | CC[C@@H](NC(=O)[C@@H]1CNC[C@H](N2CC(=O)N(c3ccccc3Cl)CC2(C)C)C1)c1ccc(F)cc1 |
